BindingDB's records for PubMed 1706716 (Duke University, 1991)
pKi: −log10 of the molar value.

Experiments:
[1] = target: T1, Alpha-1A adrenergic receptor (Bos taurus, UniProt P18130)
T1 sequence (P18130 whole entry): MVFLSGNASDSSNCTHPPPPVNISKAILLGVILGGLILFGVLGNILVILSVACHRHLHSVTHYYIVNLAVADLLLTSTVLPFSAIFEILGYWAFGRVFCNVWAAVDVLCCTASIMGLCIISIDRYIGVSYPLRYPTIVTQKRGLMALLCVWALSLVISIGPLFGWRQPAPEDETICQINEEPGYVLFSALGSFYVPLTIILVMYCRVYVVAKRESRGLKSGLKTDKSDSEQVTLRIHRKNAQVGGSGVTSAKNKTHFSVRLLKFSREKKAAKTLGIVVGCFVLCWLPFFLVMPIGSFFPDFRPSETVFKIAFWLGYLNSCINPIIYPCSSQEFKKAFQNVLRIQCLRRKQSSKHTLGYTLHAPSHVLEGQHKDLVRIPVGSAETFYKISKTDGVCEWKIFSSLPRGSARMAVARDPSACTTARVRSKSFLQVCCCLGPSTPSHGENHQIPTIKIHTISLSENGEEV

[2] = target: T2, Alpha-1B adrenergic receptor (Rattus norvegicus, UniProt P15823)
T2 sequence (P15823 whole entry): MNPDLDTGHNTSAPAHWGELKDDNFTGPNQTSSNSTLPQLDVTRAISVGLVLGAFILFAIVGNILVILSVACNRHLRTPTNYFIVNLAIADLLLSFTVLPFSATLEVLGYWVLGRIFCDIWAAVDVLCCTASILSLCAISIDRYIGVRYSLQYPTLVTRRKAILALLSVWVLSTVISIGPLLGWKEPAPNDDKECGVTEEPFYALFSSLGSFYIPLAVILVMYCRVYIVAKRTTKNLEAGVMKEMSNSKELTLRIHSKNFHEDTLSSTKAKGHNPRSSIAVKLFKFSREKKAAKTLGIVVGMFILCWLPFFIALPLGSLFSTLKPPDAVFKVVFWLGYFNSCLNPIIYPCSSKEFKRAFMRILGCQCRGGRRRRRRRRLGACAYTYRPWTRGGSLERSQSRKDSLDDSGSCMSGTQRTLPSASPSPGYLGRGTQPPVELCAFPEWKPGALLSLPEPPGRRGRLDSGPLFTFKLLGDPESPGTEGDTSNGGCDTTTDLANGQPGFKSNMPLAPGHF

[3] = target: T3, Alpha-1A adrenergic receptor (Rattus norvegicus, UniProt P43140)
T3 sequence (P43140 whole entry): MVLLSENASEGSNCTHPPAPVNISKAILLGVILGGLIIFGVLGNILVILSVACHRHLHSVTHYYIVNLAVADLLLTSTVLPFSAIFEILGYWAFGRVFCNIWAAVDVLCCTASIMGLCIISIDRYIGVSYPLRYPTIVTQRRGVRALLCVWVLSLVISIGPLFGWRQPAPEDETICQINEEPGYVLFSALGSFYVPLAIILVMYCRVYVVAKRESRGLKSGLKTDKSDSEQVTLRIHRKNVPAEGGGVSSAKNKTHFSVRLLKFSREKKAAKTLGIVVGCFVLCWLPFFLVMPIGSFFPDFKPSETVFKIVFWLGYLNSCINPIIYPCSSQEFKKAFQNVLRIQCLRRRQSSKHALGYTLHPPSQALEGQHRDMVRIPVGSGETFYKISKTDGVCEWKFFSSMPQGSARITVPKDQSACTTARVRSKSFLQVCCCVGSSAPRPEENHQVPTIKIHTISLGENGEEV

Row | Structure (SMILES) | pKi [1] | pKi [2] | pKi [3]
1 | NCC(O)c1ccc(O)c(O)c1 (stereo not drawn) [Noradrenaline,(+)] | 5.01 | – | –
2 | COC(=O)[C@@H]1[C@H]2C[C@H]3c4[nH]c5ccccc5c4CCN3C[C@@H]2CC[C@@H]1O [yohimbic acid methyl ester] | – | 6.29 | –
3 | CNC[C@H](O)c1cccc(O)c1 [PHENYLEPHRINE] | < 5.00 | – | –
4 | COc1ccc(OC)c(C(O)C(C)N)c1 (stereo not drawn) | < 5.00 | 5.79 | < 5.00
5 | Cc1cc(C(C)(C)C)c(O)c(C)c1CC1=NCCN1 [SMR000059324] | 6.94 | – | –
6 | O=C(NC1CCN(CCc2c[nH]c3ccccc23)CC1)c1ccccc1 [N-{1-[2-(1H-Indol-3-yl)-ethyl]-piperidin-4-yl}-benzamide(indoramin)] | – | 6.65 | 6.21
7 | Cc1ccc(N(CC2=NCCN2)c2cccc(O)c2)cc1 [SMR000059054] | 7.82 | – | –
8 | COc1cccc(OC)c1OCCNCC1Oc2ccccc2OC1c1ccccc1 (stereo not drawn) [NSC_185453] | 9.17 | 7.54 | 8.68
